Tests used:
Test in all cases: cells
[1] = test system: COLO-741; format: functional, cell-based, Homo sapiens; conditions: Homo sapiens, COLO-741
Description: SANGER: Inhibition of human COLO-741 cell growth in a cell viability assay.

[2] = test system: COR-L23; format: functional, cell-based, Homo sapiens; conditions: Homo sapiens, COR-L23;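 note: cell viability assay measuring how strongly compounds suppress growth of COR-L23 cells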
Description: SANGER: Inhibition of human COR-L23 cell growth in a cell viability assay.

[3] = test system: Ca-Ski; format: functional, cell-based; conditions: Homo sapiens;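 note: cell viability assay measuring inhibition of Ca-Ski cell growth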
Description: SANGER: Inhibition of human Ca-Ski cell growth in a cell viability assay.

[4] = test system: D-502MG; format: functional, cell-based, Homo sapiens; conditions: Homo sapiens, D-502MG
Description: SANGER: Inhibition of human D-502MG cell growth in a cell viability assay.

[5] = test system: EW-24; format: functional, cell-based; conditions: Homo sapiens;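 note: human EW-24 cancer cell line, growth inhibition read out via a cell viability assay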
Description: SANGER: Inhibition of human EW-24 cell growth in a cell viability assay.

[6] = test system: GI-ME-N; format: functional, cell-based, Homo sapiens; conditions: Homo sapiens, GI-ME-N;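 note: growth inhibition of human GI-ME-N cells, read out with a cell viability assay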
Description: SANGER: Inhibition of human GI-ME-N cell growth in a cell viability assay.

[7] = test system: GMS-10; format: functional, cell-based, Homo sapiens; conditions: Homo sapiens, GMS-10;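 note: growth inhibition of GMS-10 cells, read out as cell viability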
Description: SANGER: Inhibition of human GMS-10 cell growth in a cell viability assay.

[8] = test system: GT3TKB; format: functional, cell-based, Homo sapiens; conditions: Homo sapiens, GT3TKB;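 note: growth inhibition of the cell line, read out with a cell viability assay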
Description: SANGER: Inhibition of human GT3TKB cell growth in a cell viability assay.

[9] = test system: HCC1569; format: functional, cell-based, Homo sapiens; conditions: Homo sapiens, HCC1569;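 note: growth inhibition of human HCC1569 cells, read out with a cell viability assay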
Description: SANGER: Inhibition of human HCC1569 cell growth in a cell viability assay.

[10] = test system: HCC70; format: functional, cell-based, Homo sapiens; conditions: Homo sapiens, HCC70;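 note: cell viability assay measuring how strongly the compound suppresses proliferation of HCC70 cells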
Description: SANGER: Inhibition of human HCC70 cell growth in a cell viability assay.

[11] = test system: HEC-1; format: functional, cell-based, Homo sapiens; conditions: Homo sapiens, HEC-1;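 note: growth inhibition of the cell line, read out with a cell viability assay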
Description: SANGER: Inhibition of human HEC-1 cell growth in a cell viability assay.

[12] = test system: HT-1080; format: functional, cell-based, Homo sapiens; conditions: Homo sapiens, HT-1080
Description: SANGER: Inhibition of human HT-1080 cell growth in a cell viability assay.

[13] = test system: HT1197; format: functional, cell-based, Homo sapiens, HT-1197; conditions: Homo sapiens, HT1197
Description: SANGER: Inhibition of human HT-1197 cell growth in a cell viability assay.

[14] = test system: Hs-578T; format: functional, cell-based, Homo sapiens; conditions: Homo sapiens, Hs-578T
Description: SANGER: Inhibition of human Hs-578-T cell growth in a cell viability assay.

[15] = test system: JVM-3; format: functional, cell-based; conditions: Homo sapiens;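 note: growth inhibition of human JVM-3 cells, read out with a cell viability assay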
Description: SANGER: Inhibition of human JVM-3 cell growth in a cell viability assay.

[16] = test system: KP-N-YN; format: functional, cell-based; conditions: Homo sapiens;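 note: growth inhibition of KP-N-YN cells, read out with a cell viability assay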
Description: SANGER: Inhibition of human KP-N-YN cell growth in a cell viability assay.

[17] = test system: KYSE-140; format: functional, cell-based, Homo sapiens; conditions: Homo sapiens, KYSE-140;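 note: cell viability assay measuring growth inhibition in human KYSE-140 cells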
Description: SANGER: Inhibition of human KYSE-140 cell growth in a cell viability assay.

[18] = test system: KYSE-150 cell line; format: functional, cell-based, Homo sapiens; conditions: Homo sapiens, KYSE-150;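 note: growth inhibition of human KYSE-150 cells, read out with a cell viability assay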
Description: SANGER: Inhibition of human KYSE-150 cell growth in a cell viability assay.

[19] = test system: KYSE-450; format: functional, cell-based; conditions: Homo sapiens;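 note: cell growth inhibition measured by a viability assay in human KYSE-450 cells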
Description: SANGER: Inhibition of human KYSE-450 cell growth in a cell viability assay.

[20] = test system: L-363; format: functional, cell-based; conditions: Homo sapiens
Description: SANGER: Inhibition of human L-363 cell growth in a cell viability assay.

[21] = test system: LAN-6; format: functional, cell-based, Homo sapiens; conditions: Homo sapiens, LAN-6;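 note: growth inhibition of LAN-6 cells, determined with a cell viability assay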
Description: SANGER: Inhibition of human LAN-6 cell growth in a cell viability assay.

[22] = test system: LU-134-A; format: functional, cell-based; conditions: Homo sapiens
Description: SANGER: Inhibition of human LU-134-A cell growth in a cell viability assay.

[23] = test system: LoVo; format: functional, cell-based; conditions: Homo sapiens;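 note: growth inhibition of human LoVo cells, read out with a cell viability assay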
Description: SANGER: Inhibition of human LoVo cell growth in a cell viability assay.

[24] = test system: MDA-MB-361; format: functional, cell-based, Homo sapiens; conditions: Homo sapiens, MDA-MB-361
[25] = test system: MOLT-4; format: functional, cell-based; conditions: Homo sapiens;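 note: growth inhibition of MOLT-4 cells, determined with a cell viability readout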
Description: SANGER: Inhibition of human MOLT-4 cell growth in a cell viability assay.

[26] = test system: MV4-11; format: functional, cell-based, MV-4-11; conditions: Homo sapiens;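 note: cell viability readout measuring growth inhibition of human MV-4-11 cells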
Description: SANGER: Inhibition of human MV-4-11 cell growth in a cell viability assay.

[27] = test system: MZ7-mel; format: functional, cell-based, Homo sapiens; conditions: Homo sapiens, MZ7-mel;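 note: growth inhibition of human MZ7-mel cells, measured by a cell viability assay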
Description: SANGER: Inhibition of human MZ7-mel cell growth in a cell viability assay.

[28] = test system: NCI-H2087; format: functional, cell-based, Homo sapiens; conditions: Homo sapiens, NCI-H2087;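 note: growth inhibition determined with a cell viability readout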
Description: SANGER: Inhibition of human NCI-H2087 cell growth in a cell viability assay.

[29] = test system: NCI-H2347; format: functional, cell-based, Homo sapiens; conditions: Homo sapiens, NCI-H2347;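 note: growth inhibition of the cell line, read out with a cell viability assay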
Description: SANGER: Inhibition of human NCI-H2347 cell growth in a cell viability assay.

[30] = test system: NCI-H2405; format: functional, cell-based, Homo sapiens; conditions: Homo sapiens, NCI-H2405;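 note: growth inhibition of the human cell line, read out with a cell viability assay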
Description: SANGER: Inhibition of human NCI-H2405 cell growth in a cell viability assay.

[31] = test system: NCI-H358; format: functional, cell-based, Homo sapiens; conditions: Homo sapiens, NCI-H358;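 note: growth inhibition of NCI-H358 human cells, read out with a cell viability assay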
Description: SANGER: Inhibition of human NCI-H358 cell growth in a cell viability assay.

[32] = test system: NCI-H810; format: functional, cell-based, Homo sapiens; conditions: Homo sapiens, NCI-H810;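 note: IC50 reflects inhibition of cancer cell line growth, read out with a cell viability assay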
Description: SANGER: Inhibition of human NCI-H810 cell growth in a cell viability assay.

[33] = test system: OE19; format: functional, cell-based, Homo sapiens; conditions: Homo sapiens, OE19;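 note: growth inhibition of OE19 cells, measured through a cell viability read-out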
Description: SANGER: Inhibition of human OE19 cell growth in a cell viability assay.

[34] = test system: ONS-76; format: functional, cell-based, Homo sapiens; conditions: Homo sapiens, ONS-76;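 note: growth inhibition of human ONS-76 cells, read out with a cell viability assay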
Description: SANGER: Inhibition of human ONS-76 cell growth in a cell viability assay.

[35] = test system: RCC10RGB; format: functional, cell-based, Homo sapiens; conditions: Homo sapiens, RCC10RGB;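 note: growth inhibition of human RCC10RGB cells, read out by a cell viability assay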
Description: SANGER: Inhibition of human RCC10RGB cell growth in a cell viability assay.

[36] = test system: RCM-1; format: functional, cell-based, Homo sapiens; conditions: Homo sapiens, RCM-1;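 note: growth inhibition of the RCM-1 line, determined with a cell viability readout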
Description: SANGER: Inhibition of human RCM-1 cell growth in a cell viability assay.

[37] = test system: RS4-11; format: functional, cell-based; conditions: Homo sapiens;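 note: growth inhibition of RS4-11 cells, read out by a cell viability assay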
Description: SANGER: Inhibition of human RS4-11 cell growth in a cell viability assay.

[38] = test system: RXF 393; format: functional, cell-based; conditions: Homo sapiens;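 note: growth inhibition of human RXF 393 cells, read out with a cell viability assay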
Description: SANGER: Inhibition of human RXF393 cell growth in a cell viability assay.

[39] = test system: SCC-25; format: functional, cell-based, Homo sapiens; conditions: Homo sapiens, SCC-25;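 note: growth inhibition of SCC-25 cells, measured with a cell viability assay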
Description: SANGER: Inhibition of human SCC-25 cell growth in a cell viability assay.

[40] = test system: SCC-9; format: functional, cell-based, Homo sapiens; conditions: Homo sapiens, SCC-9;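 note: Read-out is a cell viability assay, with values giving inhibition of cell growth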
Description: SANGER: Inhibition of human SCC-9 cell growth in a cell viability assay.

[41] = test system: SK-LU-1; format: functional, cell-based, Homo sapiens; conditions: Homo sapiens, SK-LU-1;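 note: cell viability assay measuring growth inhibition of human SK-LU-1 cells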
Description: SANGER: Inhibition of human SK-LU-1 cell growth in a cell viability assay.

[42] = test system: SK-MEL3; format: functional, cell-based, Homo sapiens, SK-MEL-3; conditions: Homo sapiens, SK-MEL3;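 note: growth inhibition of human SK-MEL-3 cells, read out with a cell viability assay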
Description: SANGER: Inhibition of human SK-MEL-3 cell growth in a cell viability assay.

[43] = test system: SW780; format: functional, cell-based, Homo sapiens; conditions: Homo sapiens, SW780;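 note: growth inhibition of the cells, read out with a cell viability assay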
Description: SANGER: Inhibition of human SW780 cell growth in a cell viability assay.

[44] = test system: ALL-PO; format: functional, cell-based; conditions: Homo sapiens;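 note: growth inhibition of ALL-PO cells, read out by a cell viability assay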
Description: SANGER: Inhibition of human ALL-PO cell growth in a cell viability assay.

[45] = test system: BT-474; format: functional, cell-based, Homo sapiens; conditions: Homo sapiens, BT-474
Description: SANGER: Inhibition of human BT-474 cell growth in a cell viability assay.

[46] = test system: BV-173; format: functional, cell-based; conditions: Homo sapiens
Description: SANGER: Inhibition of human BV-173 cell growth in a cell viability assay.

[47] = test system: TYK-nu; format: functional, cell-based, Homo sapiens; conditions: Homo sapiens, TYK-nu;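 note: growth inhibition of human TYK-nu cells, read out by a cell viability assay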
Description: SANGER: Inhibition of human TYK-nu cell growth in a cell viability assay.

[48] = test system: UACC-893; format: functional, cell-based, Homo sapiens; conditions: Homo sapiens, UACC-893
Description: SANGER: Inhibition of human UACC-893 cell growth in a cell viability assay.

[49] = test system: WM-115; format: functional, cell-based, Homo sapiens; conditions: Homo sapiens, WM-115
Description: SANGER: Inhibition of human WM-115 cell growth in a cell viability assay.

[50] = test system: CCRF-CEM; format: functional, cell-based; conditions: Homo sapiens;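 note: inhibition of CCRF-CEM cell growth, measured by a cell viability assay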
Description: SANGER: Inhibition of human CCRF-CEM cell growth in a cell viability assay.

[51] = test system: D-392MG; format: functional, cell-based, Homo sapiens; conditions: Homo sapiens, D-392MG
[52] = test system: TGW; format: functional, cell-based; conditions: Homo sapiens;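 note: growth inhibition of human TGW cells, read out with a cell viability assay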
Description: SANGER: Inhibition of human TGW cell growth in a cell viability assay.

`Nc1ccn([C@@H]2O[C@H](CO)[C@@H](O)[C@@H]2O)c(=O)n1` [CYTARABINE] was tested, and the IC50 [1] was over 2000 nM, the IC50 [2] was 797 nM and the IC50 [3] was over 2000 nM. For the same compound, the IC50 [4] was over 2000 nM, the IC50 [5] was 794 nM and the IC50 [6] was 1660 nM. The IC50 [7] was 396 nM, the IC50 [8] was 341 nM and the IC50 [9] was over 2000 nM. For the same compound, the IC50 [10] was over 2000 nM, the IC50 [11] was 1790 nM and the IC50 [12] was 114 nM. It also gave an IC50 [13] of over 2000 nM, an IC50 [14] of 839 nM and an IC50 [15] of 1450 nM. It also gave an IC50 [16] of over 2000 nM, an IC50 [17] of over 2000 nM and an IC50 [18] of over 2000 nM. For the same compound, the IC50 [19] was 1090 nM, the IC50 [20] was 1340 nM and the IC50 [21] was over 2000 nM. It also gave an IC50 [22] of over 2000 nM, an IC50 [23] of 671 nM and an IC50 [24] of over 2000 nM. For the same compound, the IC50 [25] was 89.7 nM, the IC50 [26] was 1850 nM and the IC50 [27] was 417 nM. The IC50 [28] was over 2000 nM, the IC50 [29] was over 2000 nM and the IC50 [30] was over 2000 nM. It also gave an IC50 [31] of over 2000 nM, an IC50 [32] of over 2000 nM and an IC50 [33] of over 2000 nM. It also gave an IC50 [34] of 390 nM, an IC50 [35] of over 2000 nM and an IC50 [36] of over 2000 nM. The IC50 [37] was 381 nM, the IC50 [38] was 700 nM and the IC50 [39] was over 2000 nM. For the same compound, the IC50 [40] was over 2000 nM, the IC50 [41] was 1310 nM and the IC50 [42] was over 2000 nM. For the same compound, the IC50 [43] was 1320 nM, the IC50 [44] was 287 nM and the IC50 [45] was over 2000 nM. For the same compound, the IC50 [46] was 516 nM, the IC50 [47] was 661 nM and the IC50 [48] was over 2000 nM. The IC50 [49] was over 2000 nM and the IC50 [50] was over 2000 nM.
`C=CCNC1=C2C[C@@H](C)C[C@H](OC)[C@H](O)[C@@H](C)/C=C(\C)[C@H](OC(N)=O)[C@@H](OC)/C=C\C=C(/C)C(=O)NC(=CC1=O)C2=O` [TANESPIMYCIN] was tested, and the IC50 [1] was over 1000 nM, the IC50 [2] was 468 nM and the IC50 [3] was 267 nM. It also gave an IC50 [51] of 894 nM, an IC50 [4] of over 1000 nM and an IC50 [6] of 772 nM. For the same compound, the IC50 [7] was 67 nM, the IC50 [8] was 59.4 nM and the IC50 [9] was over 1000 nM. The IC50 [10] was 921 nM, the IC50 [11] was 65.9 nM and the IC50 [12] was 84.4 nM. For the same compound, the IC50 [13] was over 1000 nM, the IC50 [14] was 72.1 nM and the IC50 [15] was 638 nM. For the same compound, the IC50 [16] was over 1000 nM, the IC50 [17] was over 1000 nM and the IC50 [18] was 52.4 nM. The IC50 [19] was 986 nM, the IC50 [20] was 82.1 nM and the IC50 [21] was over 1000 nM. It also gave an IC50 [22] of 261 nM, an IC50 [23] of over 1000 nM and an IC50 [24] of 15 nM. For the same compound, the IC50 [25] was over 1000 nM, the IC50 [26] was 68 nM and the IC50 [27] was 176 nM. The IC50 [28] was 174 nM, the IC50 [29] was 148 nM and the IC50 [30] was 346 nM. The IC50 [31] was 687 nM, the IC50 [32] was over 1000 nM and the IC50 [33] was 30.8 nM. For the same compound, the IC50 [34] was over 1000 nM, the IC50 [35] was over 1000 nM and the IC50 [36] was over 1000 nM. The IC50 [37] was over 1000 nM, the IC50 [38] was 120 nM and the IC50 [39] was 246 nM. The IC50 [40] was 167 nM, the IC50 [41] was 30.8 nM and the IC50 [42] was 815 nM. The IC50 [43] was 42 nM, the IC50 [44] was over 1000 nM and the IC50 [45] was 45 nM. It also gave an IC50 [46] of 687 nM, an IC50 [52] of over 1000 nM and an IC50 [47] of 39.9 nM. It also gave an IC50 [48] of 637 nM, an IC50 [49] of 37.6 nM and an IC50 [50] of over 1000 nM.

From ChEMBL document CHEMBL1201861, “Genomics of Drug Sensitity in Cancer screening data, Wellcome Trust Sanger Institute”
